The subject of one data set is RARs. In words: Activation of RARs. The format is cell-based.
The next data set concerns RXRs. In words: Activation of RXRs. It counts as cell-based.
Data set [1] has as its system patients in the studies of acitretin. Particulars: published data (N = 525); cited from earlier work.
The conditions of data set [2]: oral, cited from earlier work; for bioavailability in the presence of food: Colburn et al.
The conditions of data set [3]: in vivo; cited from earlier work.
For data set [4] the following is noted: cited from earlier work.
In data set [5] the test system is patients in the studies of isotretinoin. Particulars: published data (N = 525); cited from earlier work.
In the next data set the test system is sebaceous glands. Particulars: published reports (Geiger); cited from earlier work.
Data set [6] is described as follows: Food effect on pharmacokinetics of tazarotenic acid after oral tazarotene (Example 1). The format is in vivo, human. Particulars: 6.3 mg oral tazarotene. The procedure:
For the purposes of this application, the bioavailability of a drug may be based on the human pharmokinetic parameters of maximum blood concentration (Cmax) and Area under the blood concentration-time curve (AUC).
(§1) The LC-MS/MS test for simultaneous detection of tazarotene and tazarotenic acid may be run as follows. One ml of plasma (EDTA-treated) is diluted with 1.0 ml of water. Diluted plasma is extracted using solid phase extraction (SPE) on a C18 cartridge. The eluate is evaporated, reconstituted in a water/methanol-based mobile phase, and injected onto a 4.6×50 mm, 3 μm pore size C-8 reverse phase high pressure liquid chromatography (HPLC) column (Agilent, Wilmington, Del.). Compounds are gradient-eluted at 1.2 mL/min and detected using an API 3000 triple quadrupole mass spectrometer with an Atmospheric Pressure Chemical Ionization (APCI) source (PE-Sciex, Concord, Ontario, Canada). Molecular reaction monitoring enhances the sensitivity and selectivity of this assay by collisionally dissociating the protonated molecules for the analyte and an internal standard thereby forming the product ions. The specific precursor-product ion pair monitored are m/z 352→324 for tazarotene, m/z 359→331 for the tazarotene internal standard, m/z 324→294 for tazarotenic acid, and m/z 331+298 for the tazarotenic acid internal standard. The lower limit of quantitation at assay range tested is 0.1 ng/mL, with a coefficient of variation and deviation from nominal concentration of <15%.

For a further data set, the target named is T1, RAR-A (Homo sapiens, UniProt P10276).
T1 sequence (P10276 1-462): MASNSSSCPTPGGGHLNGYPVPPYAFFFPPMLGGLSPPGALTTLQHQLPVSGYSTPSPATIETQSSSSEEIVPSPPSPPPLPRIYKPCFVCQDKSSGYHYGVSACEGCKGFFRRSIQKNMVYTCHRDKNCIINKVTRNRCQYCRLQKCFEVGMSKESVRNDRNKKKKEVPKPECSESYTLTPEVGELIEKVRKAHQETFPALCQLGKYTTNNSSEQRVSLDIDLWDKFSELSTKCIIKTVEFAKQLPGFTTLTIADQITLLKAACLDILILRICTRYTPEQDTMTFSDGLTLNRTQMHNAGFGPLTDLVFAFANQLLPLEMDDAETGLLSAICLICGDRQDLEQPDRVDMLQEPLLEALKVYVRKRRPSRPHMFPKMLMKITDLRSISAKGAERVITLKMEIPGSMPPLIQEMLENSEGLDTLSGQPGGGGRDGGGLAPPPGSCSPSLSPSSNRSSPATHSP
In words: RAR-alpha activity. It counts as cell-based.

Data set [7] in a line: Body weight effect on plasma tazarotenic acid Cmax and AUC (Example 7). It counts as in vivo, human. Particulars: 6 mg tazarotene daily, day 9. On the procedure:
as §1, with “<15%. […]” for “<15%.”

The conditions of data set [8]: topical administration of tazarotene; cited from earlier work.

Take `CC1(C)CC[S+]([O-])c2ccc(C#Cc3ccc(C(=O)O)cn3)cc21` (stereo not drawn) [AGN 190844]: the “activation of RARs” value with RARs is listed as “does not activate”. The “activation of RXRs” value with RXRs is “does not activate”.

For `COc1cc(C)c(/C=C/C(C)=C/C=C/C(C)=C/C(=O)O)c(C)c1C` [Acitretin, acitretin], in data set [1], the Alopecia is reported as 319 (60.8) NUMBER OF (%) OF PATIENTS, the Arthralgia is listed as 102 (19.4) NUMBER OF (%) OF PATIENTS, the Atrophy of skin is given as 64 (12.2) NUMBER OF (%) OF PATIENTS and the Back pain is given as 41 (7.8) NUMBER OF (%) OF PATIENTS. Moreover, in data set [1], the Cheilitis was 429 (81.7) NUMBER OF (%) OF PATIENTS, the “Dry Skin” value is 174 (33.1) NUMBER OF (%) OF PATIENTS, the “Dry mouth/Oral dryness” value is 76 (14.5) NUMBER OF (%) OF PATIENTS and the Epistaxis was 61 (11.6) NUMBER OF (%) OF PATIENTS. In data set [1], the “Erythematous rash/Erythema” value is listed as 57 (10.9) NUMBER OF (%) OF PATIENTS, the Hyperesthesia was 66 (12.6) NUMBER OF (%) OF PATIENTS, the “Nail Disorder” value is 170 (32.4) NUMBER OF (%) OF PATIENTS and the Paresthesia is given as 56 (10.7) NUMBER OF (%) OF PATIENTS. Moreover, in data set [1], the Paronychia/Nail disorder is recorded as 66 (12.6) NUMBER OF (%) OF PATIENTS, the Pruritus was 157 (29.9) NUMBER OF (%) OF PATIENTS, the Rhinitis was 153 (29.1) NUMBER OF (%) OF PATIENTS and the Rigors/Chills is reported as 67 (12.8) NUMBER OF (%) OF PATIENTS. In data set [1], the “Skin peeling/Desquamation” value is 345 (65.7) NUMBER OF (%) OF PATIENTS, the “Sticky skin/Skin disorder” value is on record as 129 (24.6) NUMBER OF (%) OF PATIENTS and the Xerophthalmia/Eye disorder is reported as 112 (21.3) NUMBER OF (%) OF PATIENTS. Also, the “bioavailability in the presence of food” value in data set [2] is reported as “bioavailability is increased in the presence of food”. In [3], the “bioavailability in relation to body weight” value (shortened to “bioavailability in relation”) was “increased with a reduced body weight”. In data set [4] (in vivo), the “effect on contraceptive effect of microdosed progestin preparations” value was “interferes with the contraceptive effect”.

With `CC1=C(/C=C/C(C)=C/C=C/C(C)=C\C(=O)O)C(C)(C)CCC1` [Isotretinoin, isotretinoin], in data set [2], the “bioavailability in the presence of food” value is listed as “bioavailability is increased in the presence of food” and the “total dose needed to reach the same peak blood concentration in the fasted state as following a high fat meal” value is given as “more than doubled”. Also, in data set [5], the Cheilitis is on record as 472 (90.2) NUMBER OF (%) OF PATIENTS, the Conjunctivitis is listed as 201 (38.4) NUMBER OF (%) OF PATIENTS, the “Desquamation central face/Desquamation” value is recorded as 187 (35.8) NUMBER OF (%) OF PATIENTS and the Dry Skin is on record as 172 (32.9) NUMBER OF (%) OF PATIENTS. Also, in [5], the Dry nose is listed as 136 (26.0) NUMBER OF (%) OF PATIENTS, the Epistaxis is listed as 121 (23.1) NUMBER OF (%) OF PATIENTS, the “Fingertip peeling/Desquamation” value is recorded as 63 (12.0) NUMBER OF (%) OF PATIENTS and the Headache is reported as 44 (8.4) NUMBER OF (%) OF PATIENTS. For the same compound, in data set [5], the Irritation of eyes is given as 85 (16.3) NUMBER OF (%) OF PATIENTS, the Pruritus was 127 (24.3) NUMBER OF (%) OF PATIENTS, the “Red Scaly face/Desquamation” value is recorded as 54 (10.3) NUMBER OF (%) OF PATIENTS and the “Skin fragility/Skin disorder” value is given as 164 (31.4) NUMBER OF (%) OF PATIENTS. Further, the “bioavailability in relation” value in data set [3] is given as “increased with a reduced body weight”. The “decrease in sebum secretion rate” value in the data set with sebaceous glands was “about 90%”. In [4] (coadministered contraceptive tablets), the “effect on blood concentrations of coadministered contraceptive components” value was “decreases blood concentrations of both ethinyl estradiol and norethindrone”.

`C=C(c1ccc(C(=O)O)cc1)c1cc2c(cc1C)C(C)(C)CCC2(C)C` [bexarotene]: the “bioavailability in the presence of food” value in [2] is recorded as “bioavailability is increased in the presence of food”. Besides, in [4] (coadministration with tamoxifen), the “effect on plasma concentration of coadministered tamoxifen” value is “reduced plasma concentration of tamoxifen”.

Regarding `CCOC(=O)/C=C(C)/C=C/C=C(C)/C=C/c1c(C)cc(OC)c(C)c1C` [etretinate], the “bioavailability in relation” value in data set [3] is given as “increased with a reduced body weight”.

Regarding `CC1(C)CCSc2ccc(C#Cc3ccc(C(=O)O)cn3)cc21` [tazarotenic acid], the “receptor specificity and selectivity” value in the data set with RARs was “specificity for the RARs and selectivity for RAR-β and RAR-γ”. In data set [6] (fed vs fasted), the “90% CI ratio of Cmax values” is on record as “partially outside the 80-125% boundary” and the “90% confidence intervals of AUC ratios (test/reference)” value is “completely within the 80-125% boundary”. The “average ratio of Cmax (test/reference)” value in [6] (fed vs fasted, Day 0) turned out to be 1.00. For the same compound, the “average ratio of Cmax (test/reference)” value in [6] (fed vs fasted, Day 9) came out at 0.829. For the same compound, the “effect of high-fat meal on bioavailability or pharmacokinetics of tazarotenic acid” value in data set [6] (within 30 minutes after high fat breakfast vs after 8-10 hour fast, single and multiple dose, healthy subjects) was “does not substantially affect”. Besides, the “activation of RXRs” value with RXRs was “does not activate”. In addition, the RAR-A activity entry at RAR-A was “minimal”. In addition, the “correlation of Cmax or AUC with body weight” value in [7] was “no correlation between either Cmax or AUC and body weight”. Also, in [8], the “maximum blood concentration of tazarotenic acid” value is listed as “less than 30 ng/ml”.
